In publication doi:10.1101/209783v1 (biorxiv, 2017):

Target: Kir6.2/SUR2A KATP channel (mKir6.2 + rSUR2A) (Rattus norvegicus, UniProt Q61743+Q63563)
Experiment: inside-out excised patch clamp, Hill fit
Assay type: biochemical

Sequence of Kir6.2/SUR2A KATP channel (mKir6.2 + rSUR2A) (Q63563 whole entry): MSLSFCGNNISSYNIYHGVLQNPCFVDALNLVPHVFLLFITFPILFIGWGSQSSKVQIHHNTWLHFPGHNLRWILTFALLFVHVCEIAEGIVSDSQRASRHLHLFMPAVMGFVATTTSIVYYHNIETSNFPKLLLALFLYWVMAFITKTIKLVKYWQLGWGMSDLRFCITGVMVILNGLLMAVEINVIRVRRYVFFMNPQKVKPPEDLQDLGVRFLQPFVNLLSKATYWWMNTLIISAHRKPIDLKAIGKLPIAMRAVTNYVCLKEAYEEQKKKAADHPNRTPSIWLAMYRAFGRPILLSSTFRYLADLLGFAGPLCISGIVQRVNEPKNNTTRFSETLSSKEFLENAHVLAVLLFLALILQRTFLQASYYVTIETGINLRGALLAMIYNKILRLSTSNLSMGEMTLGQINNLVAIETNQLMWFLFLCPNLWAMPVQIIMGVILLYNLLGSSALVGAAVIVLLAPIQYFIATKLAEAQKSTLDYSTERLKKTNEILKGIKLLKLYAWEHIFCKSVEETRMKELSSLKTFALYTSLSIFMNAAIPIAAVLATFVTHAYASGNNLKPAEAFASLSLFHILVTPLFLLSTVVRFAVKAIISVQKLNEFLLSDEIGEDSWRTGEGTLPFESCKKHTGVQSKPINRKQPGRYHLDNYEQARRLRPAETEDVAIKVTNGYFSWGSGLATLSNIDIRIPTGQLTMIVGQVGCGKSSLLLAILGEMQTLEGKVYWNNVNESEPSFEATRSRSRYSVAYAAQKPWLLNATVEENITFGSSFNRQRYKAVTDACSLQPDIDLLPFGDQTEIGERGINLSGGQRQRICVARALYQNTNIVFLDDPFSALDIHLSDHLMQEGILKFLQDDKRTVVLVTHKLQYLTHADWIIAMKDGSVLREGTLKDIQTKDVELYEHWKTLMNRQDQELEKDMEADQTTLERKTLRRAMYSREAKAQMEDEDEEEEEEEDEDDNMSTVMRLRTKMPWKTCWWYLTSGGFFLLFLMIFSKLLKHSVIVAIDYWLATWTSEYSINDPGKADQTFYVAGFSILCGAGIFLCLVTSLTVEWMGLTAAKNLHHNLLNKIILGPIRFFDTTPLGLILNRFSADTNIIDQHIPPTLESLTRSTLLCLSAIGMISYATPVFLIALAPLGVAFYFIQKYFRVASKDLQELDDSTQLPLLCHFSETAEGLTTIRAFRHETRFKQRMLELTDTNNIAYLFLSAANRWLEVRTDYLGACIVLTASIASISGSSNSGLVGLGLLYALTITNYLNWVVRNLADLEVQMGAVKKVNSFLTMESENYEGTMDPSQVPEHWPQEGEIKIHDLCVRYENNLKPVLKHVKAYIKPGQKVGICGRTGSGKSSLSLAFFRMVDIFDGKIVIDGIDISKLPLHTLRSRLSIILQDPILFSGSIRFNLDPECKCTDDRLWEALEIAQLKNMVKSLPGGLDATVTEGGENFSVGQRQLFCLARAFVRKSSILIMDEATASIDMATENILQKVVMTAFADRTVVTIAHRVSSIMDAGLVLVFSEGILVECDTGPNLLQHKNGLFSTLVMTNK
Sequence of Kir6.2/SUR2A KATP channel (mKir6.2 + rSUR2A) (Q61743 whole entry): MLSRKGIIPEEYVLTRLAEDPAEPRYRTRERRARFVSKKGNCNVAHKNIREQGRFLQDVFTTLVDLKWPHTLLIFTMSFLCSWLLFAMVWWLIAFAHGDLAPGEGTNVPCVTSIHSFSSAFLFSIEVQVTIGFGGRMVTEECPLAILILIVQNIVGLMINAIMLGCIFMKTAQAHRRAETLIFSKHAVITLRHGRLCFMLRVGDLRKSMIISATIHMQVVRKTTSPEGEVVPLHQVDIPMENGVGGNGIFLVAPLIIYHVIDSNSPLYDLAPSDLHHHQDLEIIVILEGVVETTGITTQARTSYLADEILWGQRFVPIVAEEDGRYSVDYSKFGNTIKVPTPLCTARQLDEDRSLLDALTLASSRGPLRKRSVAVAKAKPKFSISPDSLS

SMILES	IC50 [µM]
Nc1ncnc2c1ncn2[C@@H]1O[C@H](COP(=O)(O)OP(=O)(O)OP(=O)(O)O)[C@@H](O)[C@H]1O [ATP]	14.4 ± 2.3
COc1ccc(Cl)cc1C(=O)NCCc1ccc(S(=O)(=O)NC(=O)NC2CCCCC2)cc1 [glibenclamide]	0.0195 ± 0.0061
